# From patent publication US4301177A, “(3-Methyl-2-butenyl)propanedioic acid mono (1,2-diphenylhydrazide) and salts thereof” (Istituto de Angeli S.p.A., priority 1979, dated 1981)
# Structures can show the parent of a compound that is named as a salt.
# Tests used:
# [1] = system: rats; test: Antipyretic activity, fever induced by brewer's yeast in rats (Table V); assay type: in vivo, male Sprague-Dawley rats
# Method: (§1) In the present study the test compounds were administered perorally by means of a stomach tube as an aqueous suspension in 5% acacia gum at a constant volume of 10 ml/kg to male Swiss mice and male Sprague-Dawley rats. Control rats and mice were given a corresponding volume of the aqueous suspension medium. The results were statistically evaluated by Dunnett's test (C. V. Dunnett.: J.A. Stat. Ass., 40, 1096, 1955).
# The antipyretic activity was investigated in rats by the method of Niemegeers et al. (see Arzneim.Forsch. 25, 1519, 1975). The rectal temperature was measured immediately before and 4 hours after the subcutaneous injection of 1 ml/100 g body weight of a 15% brewer's yeast suspension in 1% acacia gum.
# The test compound was administered orally to groups of 5 different rats per dose 4 hours after the yeast injection. The rectal temperature was measured 0.5, 1, 1.5, 2, 2.5, 3 and 19 hours after treatment.
# (§2) Average values of the temperatures obtained in the treated rats were compared with those of control rats.
# [2] = system: rats; test: Analgesic-anti-inflammatory activity, Randall and Selitto, brewer's yeast inflamed paw in rats (Table IV); assay type: in vivo, male Sprague-Dawley rats; conditions: for Analgesic Index: ratio to controls (1.0)
# Method: as §1
# 4. Analgesic-anti-inflammatory activity
# The analgesic-anti-inflammatory activity was evaluated in rats by the method of Randall and Selitto (Arch. Int. Pharmacodyn., 111, 409, 1957), using an analgesimeter to measure the minimum load that must be applied to a rat's hind paw to elicit a painful stimulus.
# Both the controls and the experimental rats were injected into the right hind paw with 0.1 ml of 20% brewer's yeast in sterile saline immediately before the administration of the test compound.
# The volume of the inflamed right hind paw was measured 1, 2 and 4 hours after the administration of the test compound.
# The analgesic-anti-inflammatory activity was evaluated using an "analgesic index" expressed as a ratio between the sum of the average weights (grams) necessary to provoke a painful stimulus at different times in treated and control animals.
# [3] = system: rats; test: Ulcerogenic effect, gastric lesions in rats (Table VIII); assay type: in vivo, male Sprague-Dawley rats; conditions: for Body weight, mean ± standard deviation / % animals with gastric lesions / Ulcerogenic Index: single dose; for % animals with gastric lesions / Ulcerogenic Index: 16 h
# Method: as §1
# The ulcerogenic effect was determined in rats by the method of Niemegeers et al. (Arzneimittel-Forschung 25, 1537, 1975). A single oral dose was administered to groups of 15 rats fasted for 9 hours before treatment and kept fasting throughout the whole experimental period. The animals were sacrificed 16 hours after treatment; the severity of lesions was scored according to an arbitrary scale ranging from + to ++++. For each group of rats, an ulcerogenic index was calculated according to Pauls et al., (Gastroenterology 8, 774, 1947).
# [4] = system: rats; test: Effect on normal temperature of rats (Table VI); assay type: in vivo, male Sprague-Dawley rats
# Method: as §1
# 6. Effect on normal temperature of rats
# The rectal temperature was measured at 30-minute intervals before and after administration of the test compound, that is, at -1.5, -1, -0.5, 0.5, 1, 1.5 and 2 hours, using groups of 10 rats each for each dosage level.
# as §2
# [5] = system: mice; test: Analgesic activity, hot plate test in mice (Table III); assay type: in vivo, male Swiss mice
# Method: as §1
# The analgesic activity was evaluated in mice by the hot plate test according to Janssen and Jageneau (J.Pharm.Pharmac., 9, 381, 1957).
# The plate temperature was kept constant at 55° C.; the reaction time was determined before and 30, 60, 90 and 120 minutes after oral administration of the test compound. Average values after administration of the test compound were compared to those obtained before treatment.
# [6] = system: rats; test: Effect on arthritis induced in rats by Freund's adjuvant (Table II); assay type: in vivo, male Sprague-Dawley rats; conditions: day 20
smiles,measurement,setting,value
"CC(C)=CCC(C(=O)O)C(=O)N(Nc1ccccc1)c1ccccc1 (stereo not drawn) [A, Calcium salt of (3-methyl-2-butenyl)propanedioic acid mono(1,2-diphenylhydrazide)]",Rectal temperature,"[1]; 40 mg/kg oral, 0 h (4 h after yeast, before treatment)",38.00 °C
same,Rectal temperature,"[1]; 40 mg/kg oral, 0.5 h",37.51 °C
same,Rectal temperature,"[1]; 40 mg/kg oral, 1 h",38.41 °C
same,Rectal temperature,"[1]; 40 mg/kg oral, 1.5 h",38.24 °C
same,Rectal temperature,"[1]; 40 mg/kg oral, 2 h",38.23 °C
same,Rectal temperature,"[1]; 40 mg/kg oral, 2.5 h",38.28 °C
same,Rectal temperature,"[1]; 40 mg/kg oral, 3 h",38.10 °C
same,Rectal temperature,"[1]; 40 mg/kg oral, 19 h",37.51 °C
same,Rectal temperature,"[1]; 40 mg/kg oral, -4 h (before yeast)",37.00 °C
same,Rectal temperature,"[1]; 80 mg/kg oral, 0 h (4 h after yeast, before treatment)",38.14 °C
same,Rectal temperature,"[1]; 80 mg/kg oral, 0.5 h",37.16 °C
same,Rectal temperature,"[1]; 80 mg/kg oral, 1 h",37.47 °C
same,Rectal temperature,"[1]; 80 mg/kg oral, 1.5 h",37.54 °C
same,Rectal temperature,"[1]; 80 mg/kg oral, 2 h",37.57 °C
same,Rectal temperature,"[1]; 80 mg/kg oral, 2.5 h",37.47 °C
same,Rectal temperature,"[1]; 80 mg/kg oral, 3 h",37.47 °C
same,Rectal temperature,"[1]; 80 mg/kg oral, 19 h",36.75 °C
same,Rectal temperature,"[1]; 80 mg/kg oral, -4 h (before yeast)",37.06 °C
same,Rectal temperature,"[1]; 160 mg/kg oral, 0 h (4 h after yeast, before treatment)",38.06 °C
same,Rectal temperature,"[1]; 160 mg/kg oral, 0.5 h",37.14 °C
same,Rectal temperature,"[1]; 160 mg/kg oral, 1 h",37.20 °C
same,Rectal temperature,"[1]; 160 mg/kg oral, 1.5 h",37.62 °C
same,Rectal temperature,"[1]; 160 mg/kg oral, 2 h",37.67 °C
same,Rectal temperature,"[1]; 160 mg/kg oral, 2.5 h",37.58 °C
same,Rectal temperature,"[1]; 160 mg/kg oral, 3 h",37.76 °C
same,Rectal temperature,"[1]; 160 mg/kg oral, 19 h",37.86 °C
same,Rectal temperature,"[1]; 160 mg/kg oral, -4 h (before yeast)",36.46 °C
same,Mean of the weights eliciting painful stimulus,"[2]; 40 mg/kg oral, 1 h",196.2 grams
same,Mean of the weights eliciting painful stimulus,"[2]; 40 mg/kg oral, 2 h",128.8 grams
same,Mean of the weights eliciting painful stimulus,"[2]; 40 mg/kg oral, 4 h",95.0 grams
same,Analgesic Index,[2]; 40 mg/kg oral,1.49
same,Mean of the weights eliciting painful stimulus,"[2]; 80 mg/kg oral, 1 h",192.6 grams
same,Mean of the weights eliciting painful stimulus,"[2]; 80 mg/kg oral, 2 h",147.6 grams
same,Mean of the weights eliciting painful stimulus,"[2]; 80 mg/kg oral, 4 h",146.2 grams
same,Analgesic Index,[2]; 80 mg/kg oral,1.72
same,Mean of the weights eliciting painful stimulus,"[2]; 160 mg/kg oral, 1 h",245.0 grams
same,Mean of the weights eliciting painful stimulus,"[2]; 160 mg/kg oral, 2 h",171.2 grams
same,Mean of the weights eliciting painful stimulus,"[2]; 160 mg/kg oral, 4 h",143.8 grams
same,Analgesic Index,[2]; 160 mg/kg oral,1.98
same,"Body weight, mean ± standard deviation",[3]; 40 mg/kg oral,206.67 ± 9.00 grams
same,% animals with gastric lesions,[3]; 40 mg/kg oral,0%
same,Ulcerogenic Index,[3]; 40 mg/kg oral,0
same,"Body weight, mean ± standard deviation",[3]; 80 mg/kg oral,205.33 ± 6.40 grams
same,% animals with gastric lesions,[3]; 80 mg/kg oral,0%
same,Ulcerogenic Index,[3]; 80 mg/kg oral,0
same,"Body weight, mean ± standard deviation",[3]; 160 mg/kg oral,212.67 ± 12.23 grams
same,% animals with gastric lesions,[3]; 160 mg/kg oral,0%
same,Ulcerogenic Index,[3]; 160 mg/kg oral,0
same,"Body weight, mean ± standard deviation",[3]; 320 mg/kg oral,218.67 ± 6.40 grams
same,% animals with gastric lesions,[3]; 320 mg/kg oral,46.66%
same,Ulcerogenic Index,[3]; 320 mg/kg oral,71.38
same,ulcerogenic effect compared with prior art compound,"[3]; summary, Table VIII",less ulcerogenic
same,Rectal temperature (normal rats),"[4]; 40 mg/kg oral, 0.5 h",35.96 °C
same,Rectal temperature (normal rats),"[4]; 40 mg/kg oral, 1 h",36.28 °C
same,Rectal temperature (normal rats),"[4]; 40 mg/kg oral, 1.5 h",36.34 °C
same,Rectal temperature (normal rats),"[4]; 40 mg/kg oral, 2 h",36.54 °C
same,Rectal temperature (normal rats),"[4]; 40 mg/kg oral, -0.5 h (before administration)",36.20 °C
same,Rectal temperature (normal rats),"[4]; 40 mg/kg oral, -1 h (before administration)",36.62 °C
same,Rectal temperature (normal rats),"[4]; 40 mg/kg oral, -1.5 h (before administration)",36.81 °C
same,Rectal temperature (normal rats),"[4]; 80 mg/kg oral, 0.5 h",36.25 °C
same,Rectal temperature (normal rats),"[4]; 80 mg/kg oral, 1 h",36.12 °C
same,Rectal temperature (normal rats),"[4]; 80 mg/kg oral, 1.5 h",36.14 °C
same,Rectal temperature (normal rats),"[4]; 80 mg/kg oral, 2 h",36.15 °C
same,Rectal temperature (normal rats),"[4]; 80 mg/kg oral, -0.5 h (before administration)",36.33 °C
same,Rectal temperature (normal rats),"[4]; 80 mg/kg oral, -1 h (before administration)",36.42 °C
same,Rectal temperature (normal rats),"[4]; 80 mg/kg oral, -1.5 h (before administration)",36.75 °C
same,Rectal temperature (normal rats),"[4]; 160 mg/kg oral, 0.5 h",35.71 °C
same,Rectal temperature (normal rats),"[4]; 160 mg/kg oral, 1 h",35.85 °C
same,Rectal temperature (normal rats),"[4]; 160 mg/kg oral, 1.5 h",35.91 °C
same,Rectal temperature (normal rats),"[4]; 160 mg/kg oral, 2 h",35.86 °C
same,Rectal temperature (normal rats),"[4]; 160 mg/kg oral, -0.5 h (before administration)",36.22 °C
same,Rectal temperature (normal rats),"[4]; 160 mg/kg oral, -1 h (before administration)",36.32 °C
same,Rectal temperature (normal rats),"[4]; 160 mg/kg oral, -1.5 h (before administration)",37.01 °C
same,Reaction time,"[5]; 50 mg/kg oral, 0 (before administration)",15.40 ± 2.76 s
same,Reaction time,"[5]; 50 mg/kg oral, 30 min",16.70 ± 3.86 s
same,Reaction time,"[5]; 100 mg/kg oral, 0 (before administration)",12.90 ± 3.21 s
same,Reaction time,"[5]; 200 mg/kg oral, 0 (before administration)",14.40 ± 2.95 s
same,analgesic activity in the hot plate test compared with bumadizon calcium,"[5]; summary, Table III","higher, begins earlier and lasts longer than that of bumadizon calcium"
same,% Inhibition,[6]; 40 mg/kg oral,34%
same,% Inhibition,[6]; 80 mg/kg oral,35%
same,% Inhibition,[6]; 160 mg/kg oral,45%
